Experimental data published in patent publication US12616697B2, “Methods of treatment with myosin modulator” (MyoKardia, Inc., priority 2020, dated 2026).

System: conscious fully-instrumented dogs with normal cardiac function
Experiment: Cardiac reserve under acute β-AR (dobutamine) challenges in conscious instrumented dogs
Assay type: in vivo, dog
Description: In addition, the effects of MAVA (at 1.5 mg/kg PO, via gavage) on cardiac reserve were evaluated via acute β-AR challenges (dobutamime: 2, 5, and 10 ug/kg/min IV) in conscious fully-instrumented (LVPV group) dogs with normal cardiac function (n=8). These challenges were performed before/after dosing (+3-hour) in control- and MAVA-treated animals both under normal cardiac physiological conditions (n=4) and under (mild) concomitant cardio-depression induced via either selective β-AR blockade (+BB, metoprolol 0.5±0.1 mg/kg PO tid; n=4) or L-type Ca2+-channel blockade (+CCB, verapamil at 5±1 mg/kg PO tid; n=4); pharmacological blockades were established for 7 days prior to the MAVA treatment. Both peak and dose-responses were evaluated at steady state.
Throughout these experiments, analog signals were digitally acquired (1000 Hz) and recorded continuously with a data acquisition/analysis system (IOX; EMKA Technologies). Heart rate (HR), end-systolic (ESP) and end-diastolic pressures (EDP), as well as the peak rates of pressure rise/decline (dP/dtmax and dP/dtmin), the contractility index (CI: dP/dt/P at dP/dtmax), and the time-constant of myocardial relaxation (tau1/2, time for 50% decay from dP/dtmin) were derived from the LV pressure signal. Meanwhile, the end-systolic (ESV) and end-diastolic volumes (EDV) were measured from the LV volume signal derived from the implanted myocardial crystals. LV volumes were derived assuming a Teichholz model, and stroke volume (SV=EDV−ESV), ejection fraction (EF=SV/EDV), as well as cardiac output (CO=SV·HR) were calculated; in a subset of animals, SV and CO values were verified from data derived from the implanted aortic flow […]. […] The slopes of the preload-recruitable stroke work (PRSW; stroke work vs. EDV) and the end-systolic pressure-volume relationships (ESPVR; end-systolic elastance, Ees) were derived by software using linear models (IOX; EMKA Technologies), and were used as load-independent inotropic indices. Ventricular load was estimated by the effective arterial elastance (Ea=ESP/SV). […]

CC(C)n1c(=O)cc(N[C@@H](C)c2ccccc2)[nH]c1=O [mavacamten, (S)-3-Isopropyl-6-((1-phenylethyl)amino)pyrimidine-2, 4(1H,3H)-dione]
β-AR induced acceleration of tau (at any given dP/dtmax gain): enhanced | β-AR elevations in dP/dtmax and CI (dobutamine challenge, MAVA 1.5 mg/kg PO): blunted
